Test results published in patent US10780094B2, “Use of carbonic anhydrase inhibitors for treatment of neurological and psychiatric disorders” (New York University, priority 2016, dated 2020).

Tests used:
[1] = Wright et al., 2008; cited from earlier work
SH-SY5Y and D3 cells = test: Aβ-induced cell death pathways (caspase 3 and 9 activation, CytC release, apoptosis); type: cell-based, human
Procedure: SH-SY5Y and D3 cells were plated on 15 mm optical borosilicate poly-L-lysine-coated sterile glass covers (ThermoFisher, Waltham, Mass., US) at a 70% confluence. After 24 hours, cells were treated with the peptides, the drugs or the different combinations of both of them, rinsed in PBS 1×, and fixed with 4% paraformaldehyde for 20 minutes. After that, the coverslips were washed once for 5 minute with PBS 1×, room temperature and twice for 5 minutes with cold PBS 1×. Cells were then permeabilized and blocked for 1 h with BSA 20 mg/mL+Triton 0.3% on PBS and incubated with the anti-active caspase-3 antibody, on PBS containing BSA 5 mg/mL, for 2 h. Next, cells were washed three times for 5 min each with PBS 1× and incubated with the secondary antibody (Alexa Fluor 488 anti-mouse antibody), at a 1:200 dilution in PBS containing BSA 5 mg/mL for an additional hour in the dark. Cells were then washed three times in the dark with 1 mL of PBS 1× and mounted on cover slips (ThermoFisher, Waltham, Mass., US). After mounting, cells were imaged, using a Nikon Eclipse Ti inverted microscope with a 20× objective (Nikon, Chiyoda. Tokyo, Japan).
Cells were plated at a confluence of 10.000 cells per well in 96-wells microplate luminescence microtiter (ThermoFisher, Waltham, Mass., US). The day after, cells were treated with the peptides and/or drugs for the experimental times. After that, caspase-Glo 9 assay was performed, following the protocol provided from the manufacturer. Luminescence was measured using a FlexStation 3 Multi-Mode Microplate Reader (Molecular devices, Sunnyvalem Calif., US).
20.000 cells per well were plated on 24-wells plates. The day after, cells were treated with peptides and/or drugs, following the experimental conditions.

[2] = tested on: mitochondria isolated from SH-SY5Y neuronal cells; test: Mitochondrial H2O2 production (Amplex Red) after Aβ challenge; type: cell-based, human; conditions: for Aβ-induced H2O2 production: Example 2, both drugs at the proposed concentrations
Procedure: (§1) Production of H2O2 from isolated mitochondria was measured using Amplex Red Hydrogen Peroxide/Peroxidase Assay (Life Technologies). Cells were treated with Aβ peptides, in the presence or absence of MTZ. After 16 hours of treatment, the mitochondrial fraction was separated from nuclear and cytoplasmic fractions as previously described (Fossati et al., 2013). Protein concentration in the mitochondrial fraction was measured by BCA assay (Thermo Scientific, Rockford, Ill.), in order to include the same amount of mitochondria in each sample. Functional mitochondrial fractions were distributed in a 96 well plate with Reaction Buffer and Amplex Red solution following the manufacturer's specifications. The plate was incubated in the dark at room temperature for 30 minutes before colorimetric evaluation of the Amplex Red reaction at 560 nm.
Cells were plated on 6-wells plates and treated with the peptides and/or drugs for the experimental times. Plates were centrifuged for 10 min at 1.000 RPM and washed twice with PBS 1×. After that, 500 μL of homogenization buffer (75 mM sucrose, 225 mM mannitol, 5 mM Tris-HCl pH=7.4, 1 mM PMSF and protease inhibitor cocktail) was added. Cells were scraped in this buffer, collected in glass tubes and grinded exactly 80 times with a pellet pestle, keeping everything always on ice. Cells were then centrifuged at 2.800 RPM for 5 min at 4° C. The supernatant was collected and centrifuged again at 2.800 RPM for 5 min at 4° C. The supernatant was again collected and centrifuged at 10.500 RPM for another 5 min at 4° C. After this, the supernatant was discarded and the pellet was re-suspended in 100 μL of homogenization buffer. The samples were centrifuged again at 10.500 RPM for 10 min at 4° C., the supernatant was discarded and the pellets (mitochondrial fractions) were re-suspended on 50 μL of homogenization buffer. A protein concentration assay on mitochondrial protein was performed, using the Pierce BCA Protein Assay Kit (ThermoFisher, Waltham, Mass., US) and following the instructions provided by the manufacturer. After that, mitochondrial fractions containing equal amounts of mitochondrial proteins were placed on 96-wells microplate absorbance microtiter (ThermoFisher, Waltham, Mass., US) and the AmplexRed assay was ran, following the instructions provided by the manufacturer. Absorbance was measured by using a FlexStation (Molecular Devices, Sunnyvalem Calif., US).

[3] = tested on: caspase 3/7 in neuronal SHSY-5Y cells; test: Active caspase 3 staining and Caspase-Glo 3/7 activity after Aβ challenge; type: cell-based, human; conditions: Aβ co-incubated with MTZ at both concentrations (100, 300 μM); 24 hours
Procedure: (§2) Caspase 9 and caspase 3/7 activation was measured by luminescent assays (Caspase-Glo 9 and caspase-Glo 3/7, Promega, Madison, Wis.), in cells treated with the Aβ peptides in DMEM without FBS. Briefly, 10,000 cells/well were plated in 96 wells plates and incubated for 24 hours with the freshly solubilized Aβ peptides. Caspase-Glo reagent was added to the cell cultures resulting in cell lysis, followed by caspase cleavage of the substrate and generation of a luminescent signal produced by the luciferase reaction. After 40 minutes incubation, the amount of caspase activity was evaluated in a plate-reading luminometer (Synergy HT Multi-Mode Microplate Reader, Biotek, Winooski, Vt.) as described in (Fossati et al., 2012b). To inhibit non-specific background activity, the proteasome inhibitor MG-132 was added to the Caspase-Glo reagent before the experiment as indicated by the manufacturer. In all cases results are expressed as fold-change compared to untreated control cells.
(§3) SHSY-5Y and Glioma cells were plated on chamber slides as above. Slides were pre-coated with Poly-D-Lysine 30 μg/ml for 2 hours for SHSY-5Y cells. […]

[4] = tested on: caspase 3/7 in glial cells; test: as above; type: cell-based, human; conditions: Aβ co-incubated with MTZ at both concentrations (100, 300 μM); 24 hours
Procedure: as §2, §3

[5] = tested on: mitochondria isolated from glial cells; test: Mitochondrial H2O2 production (Amplex Red) after Aβ challenge; type: cell-based, human
Procedure: as §1

Normal Human Astrocytes = test: Cell Death ELISAplus, Aβ-induced apoptosis (fragmented nucleosomes); type: cell-based; conditions: 1 day
Procedure: The extent of apoptosis caused by Aβ in the presence or absence of MTZ was assessed by quantitation of nucleosome formation using Cell Death ELISA^plus (Roche Applied Science, Indianapolis, Ind.). Briefly, after incubation with the peptides, plates were centrifuged in a Beckman J-6B centrifuge (10 min; 1,000 rpm), cells lysed, and DNA-histone complexes (nucleosomes) quantitated by Cell Death ELISA, as previously described (Fossati et al., 2010).

## CC(=O)Nc1nnc(S(N)(=O)=O)s1 [ATZ, acetazolamide]
[1]
  well tolerated daily dose in humans: ≤ 1000 mg
SH-SY5Y and D3 cells; ATZ
  caspase activation and CytC release induced by Aβ: completely reverting
SH-SY5Y and D3 cells; ATZ versus MTZ
  effective concentration lower than that of MTZ: 10 times
SH-SY5Y and D3 cells; Aβ challenge, FIGS. 16A-16B
  nuclear chromatin condensation indicative of apoptosis: prevented
[2]
  Aβ-induced H2O2 production: completely reverted

## CC(=O)/N=c1/sc(S(N)(=O)=O)nn1C [MTZ, methazolamide]
[3]
  active-caspase 3 staining and activity of caspases 3/7: greatly suppressed
[4]
  active-caspase 3 staining and activity of caspases 3/7: greatly suppressed
[5]; Example 1, Aβ with MTZ
  Aβ-induced increase in H2O2 production by isolated mitochondria: completely reverted
[5]; MTZ alone, untreated cells
  H2O2 production, drug alone: did not have any effect
Normal Human Astrocytes; 100 μM MTZ
  DNA fragmentation after Aβ challenge: significantly effective at reducing DNA fragmentation
Normal Human Astrocytes; 300 μM MTZ, Aβ42 10 μM
  Aβ-mediated increase in fragmented nucleosomes: completely prevented
[2]; Example 1, Aβ with MTZ
  Aβ-induced increase in H2O2 production by isolated mitochondria: completely reverted
[2]
  Aβ-induced H2O2 production: completely reverted
[2]; MTZ alone, untreated cells
  H2O2 production, drug alone: did not have any effect
